Read-outs that look alike come from different tables or passages of the source.
Key:
[1] = molecular target: rotamase activity of FKBP-12 (Homo sapiens, UniProt P62942); experiment: Rotamase inhibition (FKBP-12); format: biochemical
[2] = tested on: chick dorsal root ganglion explant cultures; experiment: Neurite outgrowth in chick dorsal root ganglion explant cultures; format: cell-based; settings: for EC50: Gallus gallus
[3] = molecular target: recombinant FKBP-12 (Homo sapiens, UniProt P62942); experiment: Inhibition of 3H-FK506 binding to recombinant FKBP-12; settings: read-out: [3H]-FK506-FKBP12 (IC50)
Chain of recombinant FKBP-12 (P62942 whole entry, species assumed): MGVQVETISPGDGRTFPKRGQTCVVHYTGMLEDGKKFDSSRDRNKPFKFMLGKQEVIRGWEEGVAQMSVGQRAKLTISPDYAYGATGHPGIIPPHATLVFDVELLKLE

[4] = tested on: Sprague-Dawley rats, sciatic nerve crush; experiment: Sciatic nerve axotomy (crush) model of nerve regeneration; format: in vivo, rat
Protocol: Six-week old male Sprague-Dawley rats were anesthetized, and the sciatic nerve exposed and crushed, at the level of the hip, by forceps. Test compounds or vehicle were administered subcutaneously just prior to the lesion and daily for the following 18 days. Sections of the sciatic nerve were stained with Holmes silver stain to quantify the number of axons, and Luxol fast blue to quantify the level of myelination. Eighteen days after lesion, there was a significant decrease in the number of axons (50% decrease as compared to non-lesioned control) and degree of myelination (90% decrease as compared to non-lesioned control) in animal treated with vehicle.

[5] = tested on: dorsal root ganglia; experiment: Neurite outgrowth in rat embryonic day 16 dorsal root ganglia explants; format: cell-based; settings: no added NGF
Protocol: Stage E16 embryos were removed from pregnant Sprague-Dawley rats and the dorsal root ganglia dissected. Whole ganglia explants were cultured in collagen-coated 35 mm dishes (Falcon) using N2 medium (Dulbecco's Modified Eagle medium and Ham's F12 medium mixed 1:1 and supplemented with progesterone, selenium, insulin, putrescine, glucose, and penicillin-streptomycin) at 37° C. in a 15% CO2 environment. […] Ganglia were observed every 2-3 days under phase-contrasting using an Olympus IMT-2 inverted microscope, and measurements of axon length were made. The axonal field of each ganglion was divided into four quadrants, and the length of the longest axons in each quadrant was measured in microns using an eye-piece micrometer. The average of these measurements was taken as the axon length for the ganglion.

[6] = molecular target: FKBP (Rattus norvegicus, UniProt Q62658); experiment: [3H]FK506 binding to PC-12 cell homogenates; settings: untreated PC-12 cell homogenates, 250 pM radioligand
Chain of FKBP (Q62658 whole entry): as the sequence (P62942 whole entry, species assumed) above, with P10S, M50T, T76I counted along it

[7] = tested on: PC-12 cells; experiment: Neurite outgrowth in PC-12 cells in the presence of NGF; settings: for Concentration for maximal effects on neurite extension: 4 days; for EC50: Rattus norvegicus
[8] = tested on: calcineurin; experiment: Calcineurin inhibition; format: biochemical; settings: YES/NO
[9] = Table I, read-out: Rotamase Inhibition Ki
[10] = Neuron, Table I, cultured sensory neurons, read-out: Neutrophic ED50 Chick DRGs
[11] = 30 mg/kg s.c. daily, 18 days after lesion
[12] = s.c. daily for 18 days following the lesion
[13] = 0.1 ng/ml NGF, 48 hr, read-out: EC50 for stimulating nerve outgrowth in the ganglia
[14] = PC-12, 96 h, read-out: Half-maximal stimulation of neurite extension

Chain of rotamase activity of FKBP-12 (P62942 whole entry): as the sequence (P62942 whole entry, species assumed) above

Molecule	Ki [1, 9] [nM]	EC50 [2, 10] [nM]	further results
COc1ccc(CCCCOC(=O)[C@@H]2CCCCN2C(=O)C(=O)c2cc(OC)c(OC)c(OC)c2)cc1 [Example 9]		0.03	
CCC(C)(C)C(=O)C(=O)N1CCCCC1C(=O)OCCCc1cc(OC)c(OC)c(OC)c1 (stereo not shown) [Example 13]	25		IC50 ([3]; Table 3): 4000 nM; Axon Number (% Control) [4, 11]: 100 % Control; Myelin Level [4, 11]: 50; Decrease in axon number as compared to non-lesioned control [4, 12]: 5%; Decrease in degree of myelination as compared to control [4, 12]: 50%
CCOC(=O)C1CCCCN1C(=O)C(=O)c1ccccc1 (stereo not shown) [Example 50]	> 10000		
CCC(C)(C)C(=O)C(=O)N1CCCC[C@H]1C(=O)OCCCc1cc(OC)ccc1OC [Example 93]	75		
CCC(C)(C)C(=O)C(=O)N1CCCC[C@H]1C(=O)OCCCc1ccc2c(c1)OCO2 [Example 94]	70		
COc1ccc(CCCCOC(=O)[C@@H]2CCCCN2C(=O)C(=O)c2ccccc2)cc1 [Example 95]	165		
O=C(C(=O)N1CCCC[C@H]1C(=O)OCCCc1ccccc1)c1ccccc1 [Example 96]	740		
CCC(C)(C)C(=O)C(=O)N1CCCC[C@H]1C(=O)OC(CCCc1ccccc1)CCCc1ccccc1 [Example 99]		5	
CCC(C)(C)C(=O)C(=O)N1CCCC[C@H]1C(=O)OCCCCc1ccc(OC)cc1 [Example 100]	60		
CCC(C)(C)C(=O)C(=O)N1CCCC[C@H]1C(=O)OCCCc1cc(OC)ccc1OC [Example 102]	12	205	Neurite outgrowth in photomicrographs ([2]; 1 pM, 100 pM and 100 nM (FIGS. 19-21)): promoting neurite outgrowth
CCC(C)(C)C(=O)C(=O)N1CCCC[C@H]1C(=O)OCCCc1ccc2c(c1)OCO2 [Example 103]	120	3	
CCC(C)(C)C(=O)C(=O)N1CCCC[C@H]1C(=O)OC(CCCCc1ccccc1)c1ccccc1 (stereo partly shown) [Example 104]	20		
C=CC[C@@H]1/C=C(\C)C[C@H](C)C[C@H](OC)[C@H]2O[C@@](O)(C(=O)C(=O)N3CCCC[C@H]3C(=O)O[C@H](/C(C)=C/[C@@H]3CC[C@@H](O)[C@H](OC)C3)[C@H](C)[C@@H](O)CC1=O)[C@H](C)C[C@@H]2OC [FK506]			EC50 [2, 13]: 1 to 2 nM; Concentration producing a noticeable increase in growth [5]: 1 nM; Concentration producing detectable augmentation of neurite outgrowth [5]: 1 pM; Concentration required for maximal outgrowth [5]: 1 pM; IC50 [6]: 1 to 2 nM; Maximal enhancement of neurite outgrowth ([7]; 0.5 ng/ml NGF, 100 nM drug, 96 hours): 2.5 fold; Concentration for maximal effects on neurite extension ([7]; 0.5 ng/ml NGF): 5 to 100 nM; Concentration eliciting the same maximal outgrowth observed with 50 ng/ml NGF ([7]; 1 ng/ml NGF, 48 hr): 1 nM; Reduction of the NGF concentration needed to elicit maximal outgrowth ([7]; FK506 100 nM, 48 hr): 20-50 fold; EC50 ([7]; PC-12, 48 h, read-out: Half maximal effects on neurite outgrowth): ~0.1 nM; EC50 [7, 14]: 0.5 nM; EC50 ([7]; PC-12, read-out: Neurite Outgrowth (ED50)): 0.5 nM
CO[C@H]1C[C@@H]2CC[C@@H](C)[C@@](O)(O2)C(=O)C(=O)N2CCCC[C@H]2C(=O)O[C@H]([C@H](C)C[C@@H]2CC[C@@H](O)[C@H](OC)C2)CC(=O)[C@H](C)/C=C(\C)[C@@H](O)[C@@H](OC)C(=O)[C@H](C)C[C@H](C)/C=C/C=C/C=C/1C [Rapamycin]			EC50 [2, 13]: 1 nM; Concentration for maximal effects on neurite extension ([7]; 0.5 ng/ml NGF): 10 to 100 nM; Stimulation of neurite outgrowth ([7]; 0.1-0.5 ng/ml NGF, 100 nM drug, 96 hours): 3-4 fold; EC50 [7, 14]: 0.2 to 0.4 nM
COC1CC2CCC(C)C(O)(O2)C(=O)C(=O)N2CCCCC2C(=O)OC(C(C)CC2CCC(O)C(OC)C2)CC(=O)C(C)C=C(C)C(O)C(OC)C(=O)C(C)CC(C)C2C=CC(C=C1C)n1c(=O)n(-c3ccccc3)c(=O)n12 (stereo not shown) [WAY-124466]			IC50 ([3]; Table 2): 10 nM; Calcineurin Inhibition [8]: fails to inhibit calcineurin; Ki ([1]; Table 2, read-out: Rotamase (Ki)): 12 nM; Potentiation of NGF-dependent neurite production in sensory ganglia ([2]; 100 nM, plus or minus 0.1 ng/ml NGF, 48 hrs (FIG. 18)): potentiate NGF-dependent neurite production; Concentration for maximal effects on neurite extension ([7]; 0.5 ng/ml NGF): 100-1,000 nM; EC50 [7, 14]: ~10 nM; Potentiation of neurite extension elicited by NGF ([7]; picomolar concentrations, 0.5 ng/ml NGF, 4 days (FIG. 15)): potentiate neurite extension
NGF: nerve growth factor			NGF concentration for maximal augmentation of neurite outgrowth ([7]; 48 hr): 50 to 100 ng/mL; NGF concentration for half maximal outgrowth in the presence of FK506 ([7]; FK506 100 nM, 48 hr): 0.1 ng/mL; Neurite extension as % of maximal effects evident at 50 ng/ml NGF ([7]; NGF alone at 0.1 ng/ml): about 15%

More lines, main results first:

Ki [1, 9] [nM]	Molecule	EC50 [2, 10] [nM]	further results
140	COc1ccc(CCCCOC(=O)[C@@H]2CCCCN2C(=O)Cc2cc(OC)c(OC)c(OC)c2)cc1 [Example 6]	25	
12	CC1(C)COC(=O)CCCCCCCCCOC(=O)[C@@H]2CCCCN2C(=O)C1=O [Example 19]	0.017	
> 10000	CCOC(=O)C1CCCCN1C(=O)C(C)=O (stereo not shown) [Example 36]		
1300	CCOC(=O)C1CCCCN1C(=O)C(=O)C(C)(C)CC (stereo not shown) [Example 41]		
1800	CCC(C)(C)C(=O)C(=O)N1CCCCC1C(=O)OCC=Cc1ccc(Cl)c(Cl)c1 (stereo not shown) [Example 90]	2500	
28	CCC(C)(C)C(=O)C(=O)N1CCCCC1C(=O)OCC=Cc1cc(OC)c(OC)c(OC)c1 (stereo not shown) [Example 91]	200	
39	CCC(C)(C)C(=O)C(=O)N1CCCCC1C(=O)OCC=Cc1ccccc1 (stereo not shown) [Example 92]	90	
130	CCC(C)(C)C(=O)C(=O)N1CCCC[C@H]1C(=O)OCCCc1cccnc1 [Example 98]	75	
15	CCC(C)(C)C(=O)C(=O)N1CCCCC1C(=O)OC(CCCc1ccccc1)CCc1ccc(OC)cc1 (stereo not shown) [Example 101]	0.17	
103	COc1ccc(CCCCOC(=O)[C@@H]2CCCCN2C(=O)C(=O)C2CCCCC2)cc1 [Example 105]		
760	O=C(C(=O)N1CCCC[C@H]1C(=O)OCCCC1CCCCC1)C1CCCCC1 [Example 106]	1	
210	O=C(C(=O)N1CCCC[C@H]1C(=O)OCCCc1ccccc1)C1CCCCC1 [Example 107]	0.82	
